Columns and labels:
[1] = target: T1, Tryptophan 2,3-dioxygenase (Homo sapiens, UniProt P48775); assay: Inhibition of recombinant human TDO2 expressed in Escherichia coli BL21 (DE3) assessed as reduction in N-formylkynurenine formation using L-tryptophan as substrate incubated for 30 mins by methylene blue reagent based concurrent assay
[2] = target: T2, Indoleamine 2,3-dioxygenase 1 (Homo sapiens, UniProt P14902); assay: Inhibition of recombinant human IDO1 expressed in Escherichia coli EC538 assessed as reduction in N-formylkynurenine formation using L-tryptophan as substrate incubated for 30 mins by methylene blue reagent based concurrent assay
[3] = target: T2, Indoleamine 2,3-dioxygenase 1; assay: Inhibition of recombinant human IDO1 expressed in Escherichia coli EC538 assessed as reduction in N-formylkynurenine formation using L-tryptophan as substrate incubated for 30 mins by methylene blue reagent based assay
[4] = target: Tryptophan 2,3-dioxygenase (Rattus norvegicus, UniProt P21643); assay: Inhibition of TDO2 in rat liver homogenate assessed as reduction in N-formylkynurenine formation using L-tryptophan as substrate incubated for 1 hr; type: tissue-based
[5] = target: T1, Tryptophan 2,3-dioxygenase; assay: Inhibition of recombinant human TDO2 expressed in Escherichia coli BL21 (DE3) assessed as reduction in N-formylkynurenine formation using L-tryptophan as substrate incubated for 30 mins by methylene blue reagent based assay

T2 sequence (P14902 whole entry): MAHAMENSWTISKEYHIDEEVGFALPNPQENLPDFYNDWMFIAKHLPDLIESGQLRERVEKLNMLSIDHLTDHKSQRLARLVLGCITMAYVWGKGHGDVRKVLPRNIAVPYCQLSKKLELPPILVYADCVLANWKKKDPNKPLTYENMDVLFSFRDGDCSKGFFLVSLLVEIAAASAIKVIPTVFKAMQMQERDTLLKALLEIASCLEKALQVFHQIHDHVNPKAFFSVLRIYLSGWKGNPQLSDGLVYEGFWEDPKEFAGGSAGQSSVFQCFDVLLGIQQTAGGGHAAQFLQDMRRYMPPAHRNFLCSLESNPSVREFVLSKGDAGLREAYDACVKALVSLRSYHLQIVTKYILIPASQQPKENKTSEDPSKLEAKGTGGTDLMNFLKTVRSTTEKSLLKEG
T1 sequence (P48775 whole entry): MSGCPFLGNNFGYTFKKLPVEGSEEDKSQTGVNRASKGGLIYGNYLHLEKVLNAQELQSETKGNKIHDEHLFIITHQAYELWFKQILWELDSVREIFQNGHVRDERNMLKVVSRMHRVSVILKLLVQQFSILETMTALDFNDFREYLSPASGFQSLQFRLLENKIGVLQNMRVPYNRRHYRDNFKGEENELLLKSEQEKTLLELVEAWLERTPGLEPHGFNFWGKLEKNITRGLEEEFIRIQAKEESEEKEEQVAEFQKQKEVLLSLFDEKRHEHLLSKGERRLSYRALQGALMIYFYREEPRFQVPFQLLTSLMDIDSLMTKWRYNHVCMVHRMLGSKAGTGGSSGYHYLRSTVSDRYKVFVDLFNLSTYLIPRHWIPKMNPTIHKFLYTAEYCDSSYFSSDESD
Sequence of Tryptophan 2,3-dioxygenase (Rattus norvegicus, UniProt P21643) (P21643 whole entry): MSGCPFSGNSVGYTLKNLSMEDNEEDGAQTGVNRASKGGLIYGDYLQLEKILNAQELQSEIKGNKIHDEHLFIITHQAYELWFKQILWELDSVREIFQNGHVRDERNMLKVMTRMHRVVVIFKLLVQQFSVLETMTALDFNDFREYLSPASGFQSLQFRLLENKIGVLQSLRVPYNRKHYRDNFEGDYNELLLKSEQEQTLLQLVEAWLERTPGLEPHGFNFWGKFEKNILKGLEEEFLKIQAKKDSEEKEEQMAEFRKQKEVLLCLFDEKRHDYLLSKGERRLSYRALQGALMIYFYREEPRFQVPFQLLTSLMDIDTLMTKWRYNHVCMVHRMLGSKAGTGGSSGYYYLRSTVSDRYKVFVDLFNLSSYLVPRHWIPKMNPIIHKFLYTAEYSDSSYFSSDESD

| Compound | IC50 [1] [µM] | IC50 [2] [µM] | IC50 [3] [µM] | IC50 [4] [µM] | IC50 [5] [µM] |
| --- | --- | --- | --- | --- | --- |
| Oc1ccccc1-c1nc2c3ccccc3c3ccccc3c2[nH]1 | 12.3 | 11.8 | – | – | – |
| O=[N+]([O-])c1cc(F)c2cccnc2c1O | 30.2 | 14.6 | – | – | – |
| O=Cc1ccc(O)c2ncccc12 | > 100 | 4.37 | – | – | – |
| CC1Oc2cc3c(-c4c(O)cc(O)c5c(O)c6c(cc45)OC(C)C(C)C6=O)c(O)cc(O)c3c(O)c2C(=O)C1C (centres undefined) | 48.6 | 44.1 | – | – | – |
| COCCn1c2nc(=O)n(-c3ccccc3)c(=O)c-2nc2ccccc21 | 33.7 | 23.8 | – | – | – |
| O=[N+]([O-])/C=C/c1cc2ccccc2[nH]1 | > 100 | 2.79 | – | – | – |
| Cc1cc(=O)n2c3c(c4c(cc13)c(CN(C)C)cc(=O)n4C)OC2 | 17.6 | 27 | – | – | – |
| O=[N+]([O-])c1cc([N+](=O)[O-])c2cccnc2c1O | 22.7 | 11.1 | – | – | – |
| O=S(=O)(/N=C/c1c(O)ccc2ccccc12)c1cccs1 | 11.3 | 1.39 | – | – | – |
| Fc1ccc2c(/C=C/c3cccnc3)c[nH]c2c1 | – | 478 | 350 | 0.05 | – |
| O=C1c2ccccc2C2=C3C(O)=NN=C3CCN12 | 4.35 | 1.72 | – | – | – |
| Nc1nonc1C(=NO)Nc1ccc(F)c(Cl)c1 | 3.62 | – | – | – | 3.47 |
| CC1=C(O)C(=O)C=C2C1=CC=C1[C@@]2(C)CC[C@@]2(C)[C@@H]3C[C@](C)(C(=O)O)CC[C@]3(C)CC[C@]12C [CELASTROL] | > 100 | 8.41 | – | – | – |
| NS(=O)(=O)NCCNc1nonc1C(=NO)Nc1ccc(F)c(Br)c1 [EPACADOSTAT] | 3.43 | – | – | – | 2.12 |

From ChEMBL document CHEMBL4811262, “Parallel discovery of selective and dual inhibitors of tryptophan dioxygenases IDO1 and TDO2 with a newly-modified enzymatic assay” (Bioorg Med Chem, 2021)
